Where a SMILES comes first, the peptide text is derived from it. [ ]: non-standard residue; d: D form. Abu = CC[C@H](N)C(=O)O
Molecular target: T1, Interleukin-8 receptors, CXCR1/CXCR2 (Homo sapiens, UniProt P25025+P25024)
T1 sequence (P25025 whole entry): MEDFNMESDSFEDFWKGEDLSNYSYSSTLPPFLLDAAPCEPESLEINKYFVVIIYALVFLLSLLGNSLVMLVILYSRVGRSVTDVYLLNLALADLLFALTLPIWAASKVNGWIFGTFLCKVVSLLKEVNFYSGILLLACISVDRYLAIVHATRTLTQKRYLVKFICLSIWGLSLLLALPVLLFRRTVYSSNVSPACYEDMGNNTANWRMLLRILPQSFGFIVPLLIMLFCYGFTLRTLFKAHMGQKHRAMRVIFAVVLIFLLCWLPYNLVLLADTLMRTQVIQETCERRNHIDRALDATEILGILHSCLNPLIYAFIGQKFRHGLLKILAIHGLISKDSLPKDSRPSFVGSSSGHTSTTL
T1 sequence (P25024 whole entry): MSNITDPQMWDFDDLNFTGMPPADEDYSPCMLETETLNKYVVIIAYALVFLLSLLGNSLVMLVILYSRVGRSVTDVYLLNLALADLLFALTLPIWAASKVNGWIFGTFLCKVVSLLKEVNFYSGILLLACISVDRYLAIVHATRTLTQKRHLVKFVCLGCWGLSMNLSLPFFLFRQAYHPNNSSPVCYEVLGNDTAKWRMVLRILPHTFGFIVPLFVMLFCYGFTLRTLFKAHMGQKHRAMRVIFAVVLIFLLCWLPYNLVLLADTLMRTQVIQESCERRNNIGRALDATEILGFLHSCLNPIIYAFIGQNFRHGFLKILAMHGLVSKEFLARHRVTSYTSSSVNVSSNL
Experiment: Inhibitory activity against interleukin-8 receptor using [125I]IL8
Assay type: protein assay

Molecule | Ki
Ac-WDFDDLNFTGMPPADEDYSP-NH2 | 27 µM
Ac-MWDFDDLNFTGMPPADEDYAP-NH2 | 15 µM
Ac-LNFTGMPPADEDYSP-NH2 | 3100 µM
Ac-MWDFDDLNFTGMAPADEDYSP-NH2 | 400 µM
Ac-FRQAYHPNNSSP-NH2 | 10 µM
Ac-NFTGMPPADEDYSP-NH2 | 2700 µM
Ac-MSNITDPQMWDFDDLNFTG-NH2 | > 30 µM
Ac-MWDADDLNFTGMPPADEDYSP-NH2 | 49 µM
CC[C@H](NC(=O)[C@H](CC(C)C)NC(=O)[C@H](Cc1ccccc1)NC(=O)[C@@H](NC(=O)CNC(=O)[C@H](Cc1ccccc1)NC(=O)[C@@H](NC(=O)[C@H](Cc1c[nH]c2ccccc12)NC(=O)CNC(=O)[C@H](CC(N)=O)NC(=O)[C@@H](NC(C)=O)C(C)C)[C@@H](C)CC)[C@@H](C)O)C(=O)N[C@@H](CCCCN)C(=O)N[C@H](C(N)=O)C(C)C (Ac-VNGWIFGTFL[Abu]KV-NH2) | > 30 µM
Ac-FDDLNFTGMPPADEDYSP-NH2 | 120 µM
Ac-MWDFDDLAFTGMPPADEDYSP-NH2 | 42 µM
Ac-MWDFDDLNFTGAPPADEDYSP-NH2 | 14 µM
Ac-GMPPADEDYSP-NH2 | 890 µM
Ac-TGMPPADEDYSP-NH2 | 2050 µM
Ac-DDLNFTGMPPADEDYSP-NH2 | 190 µM
Ac-DFDDLNFTGMPPADEDYSP-NH2 | 68 µM
Ac-MWDFDDLNFTGMPPAAEDYSP-NH2 | 55 µM
Ac-MADFDDLNFTGMPPADEDYSP-NH2 | 55 µM
CC[C@H](NC(=O)[C@@H](NC(C)=O)C(C)C)C(=O)N[C@@H](Cc1ccc(O)cc1)C(=O)N[C@@H](CCC(=O)O)C(=O)N[C@H](C(=O)N[C@@H](CC(C)C)C(=O)NCC(=O)N[C@@H](CC(N)=O)C(=O)N[C@@H](CC(=O)O)C(=O)N[C@H](C(=O)N[C@@H](C)C(=O)N[C@@H](CCCCN)C(=O)N[C@@H](Cc1c[nH]c2ccccc12)C(=O)N[C@@H](CCCN=C(N)N)C(=O)N[C@@H](CCSC)C(=O)N[C@H](C(=O)N[C@@H](CC(C)C)C(=O)N[C@@H](CCCN=C(N)N)C(=O)N[C@H](C(N)=O)[C@@H](C)CC)C(C)C)[C@@H](C)O)C(C)C (Ac-V[Abu]YEVLGNDTAKWRMVLRI-NH2) | > 1 µM

Molecule | Ki
Ac-MWDFDALNFTGMPPADEDYSP-NH2 | 62 µM
Ac-FTGMPPADEDYSP-NH2 | 1850 µM
Ac-MWDFDDLNFAGMPPADEDYSP-NH2 | 5 µM
Ac-MWAFDDLNFTGMPPADEDYSP-NH2 | 28 µM
Ac-MWDFDDLNFTGMPPADEDYSA-NH2 | 155 µM
Ac-MWDFDDLNATGMPPADEDYSP-NH2 | 107 µM
Ac-MWDFADLNFTGMPPADEDYSP-NH2 | 32 µM
CSCC[C@H](NC(C)=O)C(=O)N1CCC[C@H]1C(=O)N1CCC[C@H]1C(=O)N[C@@H](C)C(=O)N[C@@H](CC(=O)O)C(=O)N[C@@H](CCC(=O)O)C(=O)N[C@@H](CC(=O)O)C(=O)N[C@@H](Cc1ccc(O)cc1)C(=O)N[C@@H](CO)C(=O)N1CCC[C@H]1C(N)=O (stereo in doubt; form 2) | 1700 µM
Ac-ADTLMRTQVIQETAERRNNIGRALDATEI-NH2 | > 1 µM
CC[C@H](NC(=O)[C@@H]1CCCN1C(=O)[C@H](CO)NC(=O)[C@H](Cc1ccc(O)cc1)NC(=O)[C@H](CC(=O)O)NC(=O)[C@H](CCC(=O)O)NC(=O)[C@H](CC(=O)O)NC(=O)[C@H](C)NC(=O)[C@@H]1CCCN1C(=O)[C@@H]1CCCN1C(=O)[C@H](CCSC)NC(C)=O)C(=O)N[C@@H](CCSC)C(=O)N[C@@H](CC(C)C)C(=O)N[C@@H](CCC(=O)O)C(=O)N[C@H](C(=O)N[C@@H](CCC(=O)O)C(=O)N[C@H](C(=O)N[C@@H](CC(C)C)C(=O)N[C@@H](CC(N)=O)C(=O)N[C@@H](CCCCN)C(=O)N[C@@H](Cc1ccc(O)cc1)C(N)=O)[C@@H](C)O)[C@@H](C)O (Ac-MPPADEDYSP[Abu]MLETETLNKY-NH2) | 0.3 µM
CSCC[C@H](NC(C)=O)C(=O)N1CCC[C@H]1C(=O)N1CCC[C@H]1C(=O)N[C@@H](C)C(=O)N[C@@H](CC(=O)O)C(=O)N[C@@H](CCC(=O)O)C(=O)N[C@@H](CC(=O)O)C(=O)N[C@@H](Cc1ccc(O)cc1)C(=O)N[C@@H](CO)C(=O)N1CCC[C@H]1C(N)=O (stereo in doubt; form 1) | 1.7 µM
Ac-MWDFDDLNFTGMPPADADYSP-NH2 | 29 µM
Ac-DLNFTGMPPADEDYSP-NH2 | 750 µM
Ac-MWDFDDLNFTGMPPADEDASP-NH2 | 265 µM
Ac-MWDFDDANFTGMPPADEDYSP-NH2 | 61 µM
Ac-AWDFDDLNFTGMPPADEDYSP-NH2 | 23 µM
Ac-MWDFDDLNFTGMPPADEDYSP-NH2 | 13 µM
Ac-MWDFDDLNFTGMPPADEAYSP-NH2 | 42 µM
Ac-MWDFDDLNFTGMPAADEDYSP-NH2 | 27 µM

Molecular target: T1, Interleukin-8 receptors, CXCR1/CXCR2
Experiment: Compound was tested for inhibitory activity against Interleukin-8 receptor
Assay type: protein assay

Molecule | IC50
Ac-MWDFDDLNFTGMPPADEDYSP-NH2 | 19 µM

Source: ChEMBL document CHEMBL1150989, “Identification and characterisation of an inhibitor of interleukin-8: a receptor based approach” (Bioorg Med Chem Lett, 1996)
